Values quoted from earlier work, collected in article PMC6237330, “Bioactivity of selected materials for coffee substitute” (PLoS ONE, 2018).

Legend:
mice = test system: mice; design: method as in PMID 20237914; conditions: 2 mg furan/kg bwt
animals = test system: animals; design: method as in earlier work; conditions: in the laboratory

SMILES	Tumor induction (mice)	Tumors in animals (animals)
c1ccoc1 [furan]	may induce tumor	
C=CC(N)=O [ACR, acrylamide]		causes tumors in animals
